What was measured:
Format in all cases: physicochemical
[1] = Particle size distribution by laser diffraction (Sympatec) after processing; conditions: for D10 / D50 / D90: Compound A, PSD; for X10: micronized GP, sampled immediately after processing
[2] = Residual solvent content by GC analysis
Protocol: Residual solvent content of the material from different batches was also analyzed. […] Residual solvent is partially removed using primary (ethanol) and secondary (water) conditioning.
Compound A (IUPAC: 7-[(1R)-2-[2-[2-fluoro-5-[[4-(2-isopropylthiazole-4-carbonyl)-1-oxa-4,9-diazaspiro[5.5]undecan-9-yl]methyl]phenyl]ethylamino]-1-hydroxy-ethyl]-4-hydroxy-3H-1,3-benzothiazol-2-one; di[[(1S,4R)-7,7-dimethyl-2-oxo-norbornan-1-yl]methanesulfonic acid] salt) was received with a 3.8% ethanol residual content. This material had been previously micronized and conditioned according to the present description to reduce the presence of isopropyl (IPA) and ethanol (EtOH) by solvent exchange/removal. The material was exposed to another conditioning gas that included water vapor, and was mixed with the conditioning gas in a conditioning zone for approximately 1.5 hours.

[3] = Particle size distribution by laser diffraction (Sympatec) after processing; conditions: for D10 / D50 / D90: micronized/annealed GP, scale-up ~1 kg batches, mean of n=3 replicates per collector; for Physical stability after micronization judged from size distribution: laser diffraction, Tables 4 and 5; for X50 / X90: micronized GP, sampled immediately after processing
Excerpt: When referred to herein, the term “optical diameter” indicates the size of a particle as measured using a laser diffraction particle size analyzer equipped with a dry powder dispenser (e.g., Sympatec GmbH, Clausthal-Zellerfeld, Germany).
(§1) A portion of the micronized GP was also conditioned using an in-process conditioning system wherein nitrogen conditioning gas was supplied to the in-process conditioning system and was controlled for flow rate, temperature and humidity. The conditioning gas was humidified through a droplet evaporation chamber after which it was directed to a mixing zone. In the mixing zone, the conditioning gas was mixed with the jet-milled aerosol comprising the micronized GP. The aerosol then entered a conditioning zone where annealing of the micronized GP occurred. The particle residence time through the conditioning zone was adjusted by means of the conditioning zone chamber geometry and/or the gas flow rate through the conditioning zone chamber. After passing through the conditioning zone, the micronized GP particles reached the cyclone-collection zone where the solid particles were separated from the gas phase and transported to a collection vessel. Upon completion of the batch processing, the collector was disengaged and transferred to a glove box for sampling. The sampling occurred in a <5% relative humidity environment. Samples were then analyzed for particle size distribution and amorphous content.
Both micronized sucrose batches were analyzed for particle size distribution by Sympatec laser diffraction.

[4] = Amorphous content by (dynamic) vapor sorption; conditions: for Calculated Amorphous Content, Collector 1 / Calculated Amorphous Content, Collector 2: conditioned GP, dynamic vapor sorption, n=2 replicates per collector; for % Amorphous Content Initial: micronized GP batches
Excerpt: as §1
The amorphous content by vapor sorption and particle morphology for both batches were also assessed. FIG. 9 provides the ethanol vapor sorption isotherm at 25° C. for both batches of micronized budesonide.
The amorphous content by vapor sorption and particle morphology for both batches were also assessed. FIG. 11 provides the ethanol vapor sorption isotherm at 25° C. for both batches of micronized fluticasone.
All batches were also analyzed for amorphous content by dynamic vapor sorption using n=2 replicates per collector.
The amorphous content by vapor sorption and particle morphology for both batches of micronized sucrose were also assessed. FIG. 13 provides the water vapor sorption isotherm at 25° C. for both batches of micronized sucrose.

[5] = Compound A batches of Example 6, residual solvent, listed as Compound A, 30° C./55% RS, 30° C./70% RH
[6] = Compound A batches of Example 6
[7] = Compound A batches of Example 6, residual solvent
[8] = Compound A batches of Example 6, residual solvent, listed as Compound A, Raw (un-milled)
[9] = micronized Compound A of Example 7, before/after about […] with water-vapor conditioning gas
[10] = listed as Batch A - Collector 1
[11] = listed as Batch A - Collector 2
[12] = listed as Batch B - Collector 1
[13] = listed as Batch B - Collector 2
[14] = listed as Batch C - Collector 1
[15] = listed as Batch C - Collector 2

## 7-[(1R)-2-[2-[2-fluoro-5-[[4-(2-isopropylthiazole-4-carbonyl)-1-oxa-4,9-diazaspiro[5.5]undecan-9-yl]methyl]phenyl]ethylamino]-1-hydroxy-ethyl]-4-hydroxy-3H-1,3-benzothiazol-2-one; di[[(1S,4R)-7,7-dimethyl-2-oxo-norbornan-1-yl]methanesulfonic acid] salt [Compound A, 30° C./55% RS (ethanol); 30° C./70% RH (water)]
[1]
  D10: 0.6 μm
  D50: 1.7 μm
  D90: 3.2 μm
[2]; [5]
  % EtOH (w/w): 1.2% (w/w)
  % IPA (w/w): 2.1% (w/w)
[2]; Compound A batches of Example 6, listed as Compound A, 30° C./55% RS, 30° C./70% RH
  % Water: 3.4%

## 7-[(1R)-2-[2-[2-fluoro-5-[[4-(2-isopropylthiazole-4-carbonyl)-1-oxa-4,9-diazaspiro[5.5]undecan-9-yl]methyl]phenyl]ethylamino]-1-hydroxy-ethyl]-4-hydroxy-3H-1,3-benzothiazol-2-one; di[[(1S,4R)-7,7-dimethyl-2-oxo-norbornan-1-yl]methanesulfonic acid] salt [Compound A, 30° C./70% RH]
[1]
  D10: 0.6 μm
  D50: 1.6 μm
  D90: 3.1 μm
[2]; [6]
  % Water: 3.4%
[2]; [7]
  % EtOH (w/w): 0.1% (w/w)
  % IPA (w/w): 3.6% (w/w)

## 7-[(1R)-2-[2-[2-fluoro-5-[[4-(2-isopropylthiazole-4-carbonyl)-1-oxa-4,9-diazaspiro[5.5]undecan-9-yl]methyl]phenyl]ethylamino]-1-hydroxy-ethyl]-4-hydroxy-3H-1,3-benzothiazol-2-one; di[[(1S,4R)-7,7-dimethyl-2-oxo-norbornan-1-yl]methanesulfonic acid] salt [Compound A, Raw (Un-milled)]
[1]
  D10: 1.1 μm
  D50: 3.7 μm
  D90: 16.3 μm
[2]; [8]
  % EtOH (w/w): 0.0% (w/w)
  % IPA (w/w): 4.7% (w/w)
[2]; Compound A batches of Example 6, listed as Compound A, Raw (un-milled)
  % Water: 3.1%

## 7-[(1R)-2-[2-[2-fluoro-5-[[4-(2-isopropylthiazole-4-carbonyl)-1-oxa-4,9-diazaspiro[5.5]undecan-9-yl]methyl]phenyl]ethylamino]-1-hydroxy-ethyl]-4-hydroxy-3H-1,3-benzothiazol-2-one; di[[(1S,4R)-7,7-dimethyl-2-oxo-norbornan-1-yl]methanesulfonic acid] salt [Compound A, Unannealed]
[1]
  D10: 0.6 μm
  D50: 1.6 μm
  D90: 3.1 μm
[2]; [6]
  % Water: 3.0%
[2]; [7]
  % EtOH (w/w): 0.2% (w/w)
  % IPA (w/w): 3.9% (w/w)

## 7-[(1R)-2-[2-[2-fluoro-5-[[4-(2-isopropylthiazole-4-carbonyl)-1-oxa-4,9-diazaspiro[5.5]undecan-9-yl]methyl]phenyl]ethylamino]-1-hydroxy-ethyl]-4-hydroxy-3H-1,3-benzothiazol-2-one; di[[(1S,4R)-7,7-dimethyl-2-oxo-norbornan-1-yl]methanesulfonic acid] salt [Compound A]
[2]; Compound A as received, Example 7
  Ethanol residual content as received: 3.8%
[2]; Compound A before micronization, Example 6
  Residual isopropyl alcohol solvent after manufacture: ~5%

## 7-[(1R)-2-[2-[2-fluoro-5-[[4-(2-isopropylthiazole-4-carbonyl)-1-oxa-4,9-diazaspiro[5.5]undecan-9-yl]methyl]phenyl]ethylamino]-1-hydroxy-ethyl]-4-hydroxy-3H-1,3-benzothiazol-2-one; di[[(1S,4R)-7,7-dimethyl-2-oxo-norbornan-1-yl]methanesulfonic acid] salt [Micronized Compound A, 30° C./70% RH (water)]
[2]; [9]
  % EtOH (w/w): 0.1% (w/w)
  % IPA (w/w): 0.0% (w/w)
  % Water: 3.6%

## 7-[(1R)-2-[2-[2-fluoro-5-[[4-(2-isopropylthiazole-4-carbonyl)-1-oxa-4,9-diazaspiro[5.5]undecan-9-yl]methyl]phenyl]ethylamino]-1-hydroxy-ethyl]-4-hydroxy-3H-1,3-benzothiazol-2-one; di[[(1S,4R)-7,7-dimethyl-2-oxo-norbornan-1-yl]methanesulfonic acid] salt [Micronized Compound A, As Received]
[2]; [9]
  % EtOH (w/w): 3.8% (w/w)
  % IPA (w/w): 0.1% (w/w)
  % Water: 3.1%

## C[N+]1(C)CCC(OC(=O)C(O)(c2ccccc2)C2CCCC2)C1 (single isomer, unassigned) [Batch A, Glycopyrrolate]
[3]; [10]
  D10: 0.52 μm
  D50: 1.48 μm
  D90: 3.02 μm
[3]; [11]
  D10: 0.52 μm
  D50: 1.47 μm
  D90: 2.99 μm
[4]
  Calculated Amorphous Content, Collector 1: 2.65%
  Calculated Amorphous Content, Collector 2: 2.35%

## C[N+]1(C)CCC(OC(=O)C(O)(c2ccccc2)C2CCCC2)C1 (single isomer, unassigned) [Batch B, Glycopyrrolate]
[3]; [12]
  D10: 0.52 μm
  D50: 1.47 μm
  D90: 3.02 μm
[3]; [13]
  D10: 0.52 μm
  D50: 1.46 μm
  D90: 2.99 μm
[4]
  Calculated Amorphous Content, Collector 1: 2.65%
  Calculated Amorphous Content, Collector 2: 2.40%

## C[N+]1(C)CCC(OC(=O)C(O)(c2ccccc2)C2CCCC2)C1 (single isomer, unassigned) [Batch C, Glycopyrrolate]
[3]; [14]
  D10: 0.52 μm
  D50: 1.47 μm
  D90: 3.03 μm
[3]; [15]
  D10: 0.51 μm
  D50: 1.45 μm
  D90: 2.96 μm
[4]
  Calculated Amorphous Content, Collector 1: 2.65%
  Calculated Amorphous Content, Collector 2: 2.45%

## C[N+]1(C)CCC(OC(=O)C(O)(c2ccccc2)C2CCCC2)C1 (centres unmarked) [Batch 1A, Glycopyrrolate]
[4]
  % Amorphous Content Initial: 17.9%

## C[N+]1(C)CCC(OC(=O)C(O)(c2ccccc2)C2CCCC2)C1 (centres unmarked) [Batch 2B, Glycopyrrolate]
[4]
  % Amorphous Content Initial: 5.3%

## C[N+]1(C)CCC(OC(=O)C(O)(c2ccccc2)C2CCCC2)C1 (centres unmarked) [Batch 2C, Glycopyrrolate]
[4]
  % Amorphous Content Initial: 0.9%

## C[N+]1(C)CCC(OC(=O)C(O)(c2ccccc2)C2CCCC2)C1 (centres unmarked) [Batch 2D, Glycopyrrolate]
[4]
  % Amorphous Content Initial: 0.9%

## C[N+]1(C)CCC(OC(=O)C(O)(c2ccccc2)C2CCCC2)C1 (centres unmarked) [Batch 2E, Glycopyrrolate]
[4]
  % Amorphous Content Initial: 2.6%

## C[N+]1(C)CCC(OC(=O)C(O)(c2ccccc2)C2CCCC2)C1 (centres unmarked) [Batch 2F, Glycopyrrolate]
[4]
  % Amorphous Content Initial: 0.9%

## C[N+]1(C)CCC(OC(=O)C(O)(c2ccccc2)C2CCCC2)C1 (centres unmarked) [Batch 2G, Glycopyrrolate]
[4]
  % Amorphous Content Initial: 2.3%

## CCCC1O[C@@H]2C[C@H]3[C@@H]4CCC5=CC(=O)C=C[C@]5(C)[C@H]4[C@@H](O)C[C@]3(C)[C@]2(C(=O)CO)O1 (some centres unmarked) [Micronized Budesonide, Batch 1 (unannealed)]
[3]
  Physical stability after micronization judged from size distribution: potential agglomeration

## CCCC1O[C@@H]2C[C@H]3[C@@H]4CCC5=CC(=O)C=C[C@]5(C)[C@H]4[C@@H](O)C[C@]3(C)[C@]2(C(=O)CO)O1 (some centres unmarked) [Micronized Budesonide, Batch 2 (annealed)]
[3]
  Physical stability after micronization judged from size distribution: good physical stability

## C[N+]1(C)CCC(OC(=O)C(O)(c2ccccc2)C2CCCC2)C1 (centres unmarked) [Micronized GP, In-Process Conditioning, Glycopyrrolate]
[1]
  X10: 0.6 μm
[3]
  X50: 1.5 μm
  X90: 3.1 μm

## C[N+]1(C)CCC(OC(=O)C(O)(c2ccccc2)C2CCCC2)C1 (centres unmarked) [Micronized GP, Standard Jet Milling, Glycopyrrolate]
[1]
  X10: 0.5 μm
[3]
  X50: 1.4 μm
  X90: 3.0 μm

Reference: patent publication US11471468B2, “Methods and systems for conditioning of particulate crystalline materials” (Pearl Therapeutics, Inc., priority 2013, dated 2022)
